Counter-ions that a name gives are not always drawn.

One data set has as its system guinea-pig teania coli. The data set is described as follows: Calcium-antagonistic activity: inhibition of CaCl2-evoked contraction of isolated guinea-pig teania coli. The format is tissue-based. Conditions: Cavia porcellus, 5 min; 50% inhibition of Ca^++-evoked contraction; CaCl2 3×10^-4 M; 5 minutes exposure; 32° C. How it is done: The action potentials on the smooth muscles of uterus, teania coli and portal vein are dependent on calcium ion, and therefor these smooth muscle preparations are useful for screening of calcium antagonists. We measured the calcium-antagonistic activity of the compounds by the method using guinea-pig teania coli preparation.
Isolated guinea-pig teania coli was suspended in a 20 ml organ bath with Krebs solution at 32° C. and bubbled with 5% carbon dioxide in oxygen. After equilibration, the muscle was washed with Ca^++ -free Krebs solution, and when the muscle had relaxed to basal level, it was suspended in Ca^++ -free-high-K Krebs solution.
The muscle was exposed to test compounds for 5 minutes before addition of CaCl2, and the contraction evoked by CaCl2 (3×10^-4 M) was recorded isotonically. The calcium-antagonistic activity was represented by the concentration of test compound which elicited 50% inhibition of Ca^++ -evoked contraction (IC50).
As usually defined, the IC50 is the concentration at which inhibition is half-maximal. As for `COc1ccc(OCCCN(C)C2CCCCC2)c(C2Sc3ccccc3N(C)C2=O)c1` (stereo not shown) [Compound 62], the IC50 is 1.6 µM.

Turning to `COc1ccc(OCCCCCN(C)C2CCCCC2)c(C2Sc3ccccc3N(C)C2=O)c1` (stereo not shown) [Compound 64], the IC50 came to 3 µM. The same measure, in the same setting: the result for `COc1ccc(OCCCCN2CCC(C(=O)c3ccccc3)CC2)c(C2Sc3ccccc3N(C)C2=O)c1` (stereo not shown) [Compound 65] reads 1.8 µM; that for `CN1C(=O)C(c2ccc(OCCCN(C)C3CCCCC3)cc2)Sc2ccccc21` (stereo not shown) [Compound 73], 3.4 µM; that for `COc1ccc(OCCCCN2CCN(CCc3cc(OC)c(OC)c(OC)c3)CC2)c(C2Sc3ccccc3NC2=O)c1` (stereo not shown) [Compound 75], 3 µM. Still for that read-out and setting: as for `COc1ccc(OCC(O)CN2CCN(CC(=O)c3ccccc3)CC2)c(C2Sc3ccccc3N(C)C2=O)c1` (stereo not shown) [Compound 107, 3,4-Dihydro-2-[5-methoxy-2-[2-hydroxy-3-(4-phenacylpiperazino)propoxy]phenyl]-4-methyl-3-oxo-2H-1,4-benzothiazine dimaleate], the figure is 3.8 µM. With `CN(CCCOc1ccc(C2Sc3ccccc3NC2=O)cc1)C1CCCCC1` (stereo not shown) [Compound 68], the IC50 was 1.9 µM.

Consider `COc1ccc(CCN2CCN(CCCOc3ccc(C4Sc5ccccc5NC4=O)cc3)CC2)cc1OC` (stereo not shown) [Compound 71], for which the IC50 came out at 2 µM. On the same count and under the same terms, the result for `COc1ccc(OCCCN2CCN(CCc3cc(OC)c(OC)c(OC)c3)CC2)c(C2Sc3ccccc3N(C)C2=O)c1` (stereo not shown) [Compound 77] reads 1.6 µM. With `COc1ccc(OCCCN(C)CCc2ccc(OC)c(OC)c2)c(C2Sc3ccccc3NC2=O)c1` (stereo not shown) [Compound 59], the IC50 is 2 µM. On the same count and under the same terms, the result for `COc1ccc(OCCCCN2CCN(CC(=O)c3ccccc3)CC2)c(C2Sc3ccccc3N(C)C2=O)c1` (stereo not shown) [Compound 79] reads 3.9 µM; that for `COc1ccc(OCCCN(C)C)c(C2Sc3ccccc3N(C)C2=O)c1` (stereo not shown) [Compound 61], 2.5 µM; that for `CN(C)CCCOc1ccc(C2Sc3ccccc3N(C)C2=O)cc1` (stereo not shown) [Compound 72, 3,4-Dihydro-2-[4-(3-dimethylaminopropoxy)phenyl]-4-methyl-3-oxo-2H-1,4-benzothiazine], 2.6 µM. Still for that read-out and setting: as for `COc1ccc(OCCCCCN(C)C2CCCCC2)c(C2Sc3ccccc3NC2=O)c1` (stereo not shown) [Compound 58], the figure is 2.6 µM.

The next data set has as its system blood platelet (rabbit platelet rich plasma). The data set is described as follows: Anti-aggregatory activity: inhibition of collagen- or ADP-induced platelet aggregation in vitro (PRP). The format is cell-based. The conditions noted are these: Oryctolagus cuniculus, 50% inhibition of control response, collagen (3 μg/ml) or ADP (3 μM), table does not say which, 37° C. How it is done:
Blood was obtained from an anesthetized rabbit using 0.1 volumes of 3.8% sodium citrate as anticoagulant. Platelet rich plasma(PRP) was isolated by centrifugation at 650 rpm for 10 minutes at room temperature. After preincubation of PRP (0.25 ml) with various concentrations of test compounds (14 μl) for 1 minute at 37° C., collagen (3 μg/ml:final concentration) or ADP (3 μM:final concentration) was added to induce aggregation and the aggregation profiles were monitored with RIKADENKI six-channel aggregometer. The control experiment contained saline instead of test compound.
The anti-aggregatory activity was represented by the concentration of test compound which elicited 50% inhibition of control response.
As to `COc1ccc(OCCCN(C)C)c(C2Sc3ccccc3N(CCCN(C)C)C2=O)c1` (stereo not shown) [Compound 82, 3,4-Dihydro-2-[2-(3-dimethylaminopropoxy)-5-methoxyphenyl]-4-(3-dimethylaminopropyl)-3-oxo-2H-1,4-benzothiazine dioxalate], the IC50 is 3.2 µM. Still for that read-out and setting: the result for `COc1ccc(OCC(O)CNC(C)(C)C)c(C2Sc3ccccc3N(C)C2=O)c1` (stereo not shown) [Compound 106] reads 1.3 µM; that for `COc1ccc(OCC(O)CNC(C)(C)C)c(C2Sc3ccccc3NC2=O)c1` (stereo not shown) [Compound 105, 2-[2-(3-tert-Butylamino-2-hydroxypropoxy)-5-methoxyphenyl]-3,4-dihydro-3-oxo-2H-1,4-benzothiazine], 1 µM; that for `COc1ccc(OCCCCN(C)C2CCCCC2)c(C2Sc3ccccc3NC2=O)c1` (stereo not shown) [Compound 57], 3.2 µM.

In the case of `COc1ccc(OCCCN(C)C)c(C2Sc3ccccc3NC2=O)c1` (stereo not shown) [Compound 55, 3,4-dihydro-2-[2-(3-dimethylaminopropoxy)-5-methoxyphenyl]-3-oxo-2H-1,4-benzothiazine], it took 3.2 µM to reach half-maximal inhibition (IC50). Still for that read-out and setting: as for `COc1ccc(OCCCN2CCN(CC(=O)c3ccccc3)CC2)c(C2Sc3ccccc3NC2=O)c1` (stereo not shown) [Compound 76], the figure is 3.2 µM.

`CN(C)CCCOc1ccc(C2Sc3ccccc3NC2=O)cc1` (stereo not shown) [Compound 67]: inhibition was half-maximal at 1.6 µM (IC50).

Compound `COc1ccc(OCCCCN2CCN(CCc3cc(OC)c(OC)c(OC)c3)CC2)c(C2Sc3ccccc3N(C)C2=O)c1` (stereo not shown) [Compound 78] had an IC50 of 3.5 µM. Same read-out and setting: as for `COc1ccc(OCCCCN(C)C2CCCCC2)c(C2Sc3ccccc3N(C)C2=O)c1` (stereo not shown) [Compound 63, 3,4-Dihydro-2-[5-methoxy-2-[4-(N-methylcyclohexylamino)butoxy]phenyl]-4-methyl-3-oxo-2H-1,4-benzothiazine oxalate], the figure is 3.2 µM.

System in the next data set: not listed separately
The data set is described as follows: Acute toxicity test, oral. The conditions noted are these: mouse, in vivo, orally, male ddy-SLC mice. How it is done:
Male ddy-SLC strain mice (4 weeks of age, weighing 19-21 g) were placed in a breeding room of constant temperature and huminity (23±1° C., 55±5%) and fed freely pellet diet and water ad. libitum for a week. Mice showing normal growth were selected for the test. (method of administration)
Test compounds are suspended in 0.5% tragacanth suspention and administered orally in a dose of 0.5 ml/20 g body weight.
As a reminder, the LD50 is the dose expected to kill half of the subjects tested. Low readings indicate greater toxicity, high ones lower toxicity. `CN1C(=O)C(c2ccc(OCCCN(C)C3CCCCC3)cc2)Sc2ccccc21` (stereo not shown) [Compound 73] yielded an LD50 of 500 to 1000 mg/kg. On the same count and under the same terms, the result for `COc1ccc(OCCCN2CCN(CCc3cc(OC)c(OC)c(OC)c3)CC2)c(C2Sc3ccccc3N(C)C2=O)c1` (stereo not shown) [Compound 77] reads over 1280 mg/kg.

The record behind these values is patent US4584300A, “Platelet anti-aggregative- and calcium antagonistic -1,4-benzothiazin-3-one derivatives, compositions, and methods of use therefor” (Santen Pharmaceutical Co., Ltd., priority 1983, dated 1986).
